Test results: PubChem BioAssay (NCI)
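Cultured in 96-well plates, cells were exposed to test compound for 48 hours across five concentrations. Here, GI50 denotes the concentration required for 50% inhibition of growth. At the TGI there is no net growth.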

Columns and labels:
Test in all cases: NCI anticancer screen, dose series, 48 h
[1] = test system: CAKI-1 renal
[2] = test system: UACC-62 melanoma
[3] = test system: COLO 205 colon
[4] = test system: MDA-MB-435
[5] = test system: SK-MEL-2 melanoma
[6] = test system: SR leukemia
[7] = test system: HT29 colon
[8] = test system: SK-MEL-5 melanoma
[9] = test system: HCC-2998 colon
[10] = test system: HS 578T breast

| Compound | GI50 [1] [µM] | TGI [1] [µM] | GI50 [2] [µM] | TGI [2] [µM] | GI50 [3] [µM] | TGI [3] [µM] | GI50 [4] [µM] | TGI [4] [µM] | GI50 [5] [µM] | TGI [5] [µM] | GI50 [6] [µM] | TGI [6] [µM] | GI50 [7] [µM] | TGI [7] [µM] | GI50 [8] [µM] | TGI [8] [µM] | TGI [9] [µM] | GI50 [9] [µM] | GI50 [10] [µM] | TGI [10] [µM] |
| --- | --- | --- | --- | --- | --- | --- | --- | --- | --- | --- | --- | --- | --- | --- | --- | --- | --- | --- | --- | --- |
| Fc1ccc2c(c1)C1=C(CO2)C(c2ccc(Cl)cc2)NC(=S)N1 (centres undefined) | 19.1 | 59.6 | 18.4 | 63.7 | 31.3 | 90.9 | 21.6 | 51.1 | 24.3 | 46.9 | 13 | 50.3 | 51.3 | > 100 | 19.2 | 49.5 | – | – | – | – |
| CC(=O)OC1CCC2C(=CCC3C2(C)C(=O)CC2(C)C(C4(C)OC(C(C)C)=CC4=O)C(O)CC32C)C1(C)C (centres undefined) | – | > 100 | – | 41.7 | – | > 100 | – | – | – | 62.3 | – | 72.5 | – | 32.3 | – | 56.9 | – | – | – | – |
| CC(=O)/C=C1\CC(=O)Nc2ccccc2N1 | – | > 100 | – | > 100 | – | – | – | – | – | > 100 | – | > 100 | – | > 100 | – | > 100 | > 100 | – | – | – |
| CCn1c(=O)c2ccccc2n2c(=O)c3cc4ccccc4cc3nc12 | – | > 100 | – | > 100 | – | > 100 | – | – | – | > 100 | – | – | – | > 100 | – | > 100 | > 100 | – | – | – |
| CS/C(c1ccccc1)=[N+](\[O-])Cc1ccccc1 | – | > 100 | – | > 100 | – | > 100 | – | – | – | > 100 | – | 43.3 | – | > 100 | – | > 100 | > 100 | – | – | – |
| COc1ccc2c(CCNC(=O)/C=C/c3ccccc3)c(C(C)=O)[nH]c2c1[N+](=O)[O-] | – | 44.5 | – | 36.1 | – | > 100 | – | – | – | > 100 | – | > 100 | – | > 100 | – | – | > 100 | – | – | – |
| Cc1ccc(Nc2cc(C)nc(NCCCNc3ccnc4cc(Cl)ccc34)n2)cc1 | 1.46 | 2.85 | 1.68 | 3.19 | 1.36 | 2.77 | 1.41 | 2.7 | 1.83 | 3.34 | – | – | 0.481 | 2.06 | 1.4 | 2.71 | 2.8 | 1.38 | – | – |
| O=C(CCSc1ccnc2c(C(F)(F)F)cccc12)N/N=C/c1cc(Cl)c(Cl)cc1Cl | 21.4 | 43.4 | 15.4 | 39.7 | 24.6 | 67.7 | 27.3 | 75.4 | 50.5 | > 100 | – | – | 17.8 | 33.9 | 19.3 | 34.9 | > 100 | 34.6 | 23.9 | 49.8 |
| Nc1nccc2c1ncn2C1OC(CO)C(O)C1O (centres undefined) | > 100 | > 100 | > 100 | > 100 | > 100 | > 100 | – | – | > 100 | > 100 | 41.6 | > 100 | > 100 | > 100 | > 100 | > 100 | > 100 | > 100 | > 100 | > 100 |
| CCOC(=O)N1C(c2ccccc2)C=CC(c2ccccc2)N1C(=O)OCC (centres undefined) | – | > 100 | – | > 100 | – | > 100 | – | – | – | > 100 | – | > 100 | – | > 100 | – | > 100 | – | – | – | – |
| O=C(O)c1ccccc1N=Nc1ccc2oc(=O)c(C(=O)Nc3ccccc3)cc2c1 | – | – | – | 71.1 | – | > 100 | – | – | – | – | – | – | – | > 100 | – | 76.8 | – | – | – | – |
| N#Cc1ccc(Oc2cccc(Oc3ccccc3)c2)cc1C#N | > 100 | > 100 | > 100 | > 100 | > 100 | > 100 | – | – | – | > 100 | – | – | > 100 | > 100 | – | > 100 | > 100 | > 100 | – | – |
| O=C(N/C(=C\c1ccc(/C=C(\NC(=O)c2ccccc2)c2nc3ccccc3s2)cc1)c1nc2ccccc2s1)c1ccccc1 | – | 28 | – | 12 | – | 16.5 | – | – | – | 19.2 | – | – | – | 19.1 | – | 17.8 | 27.8 | – | – | – |
| Cn1c(=O)c(C(=O)NC(=O)NCCCCCOC(=O)CCCCCCCCCCC(=O)OCCCCCNC(=O)NC(=O)c2cn(Cc3ccccc3)c(=O)n(C)c2=O)cn(Cc2ccccc2)c1=O | – | > 100 | – | > 100 | – | > 100 | – | – | – | > 100 | – | – | – | > 100 | – | > 100 | > 100 | – | – | – |
| CCOC(=O)c1ccc(N2C(=O)Cc3ccccc3C2=O)cc1 | – | – | – | > 100 | – | – | – | – | – | > 100 | – | > 100 | – | > 100 | – | > 100 | > 100 | – | – | – |
| CS(=O)(=O)N(CCC#N)c1ccc(C=O)cc1 | – | > 100 | – | > 100 | – | – | – | – | – | > 100 | – | > 100 | – | > 100 | – | > 100 | > 100 | – | – | – |
| CCOC(=O)C(C)(C)Oc1ccc2c(-c3ccc(Cl)cc3)c(-c3ccc(Cl)cc3)c(=O)oc2c1 | – | – | – | > 100 | – | > 100 | – | – | – | > 100 | – | > 100 | – | > 100 | – | > 100 | > 100 | – | – | – |
| C=C(CNC(=O)c1ccccc1)c1ccc(C(=O)Nc2ccccc2N)cc1 | 4.09 | 45.4 | 1.75 | 11.4 | 5.88 | > 100 | 6.88 | > 100 | 5.2 | > 100 | – | – | 3.86 | > 100 | 2.67 | 14.9 | > 100 | 9.3 | 20 | > 100 |
| Cc1c(-c2nnc(-c3ccccc3)o2)c(=O)n(-c2ccccc2)n1C | – | – | – | > 100 | – | > 100 | – | – | – | > 100 | – | > 100 | – | > 100 | – | – | > 100 | – | – | – |
| N#C/C(=C\c1c(-c2ccccc2)[nH]c2ccccc12)C(=O)c1ccccc1 | 2.45 | > 100 | 3.6 | > 100 | 5.02 | > 100 | 0.37 | 4.14 | 35.2 | > 100 | – | – | 3.41 | > 100 | – | – | > 100 | 14.5 | 6.26 | 40.5 |
| Clc1cc(-c2ccccc2)nc2ccccc12 | – | > 100 | – | > 100 | – | 37.5 | – | 95.4 | – | 38 | – | – | – | > 100 | – | 33 | – | – | – | > 100 |
